Reference: US11524966B1 (Valo Early Discovery, Inc., priority 2017, dated 2022)

These compounds were tested against T1, USP28 (His-tagged USP28-FL-mammalian) (Homo sapiens, UniProt Q96RU2) (assay: Ubiquitin-Rhodamine 110 Assay for USP28 Activity, Example A-1(a)). Conditions: Ubiquitin-Rhodamine 110 assay, Example A-1(a); read-out: USP28 A-1(a) IC50 range.
T1 construct: Expression of USP28 (1-1077)-TEV-6*His (pTT5 vector); made in house; host or cells: Expi293f cells (pTT5 vector)
T1 sequence (Q96RU2 1-1077): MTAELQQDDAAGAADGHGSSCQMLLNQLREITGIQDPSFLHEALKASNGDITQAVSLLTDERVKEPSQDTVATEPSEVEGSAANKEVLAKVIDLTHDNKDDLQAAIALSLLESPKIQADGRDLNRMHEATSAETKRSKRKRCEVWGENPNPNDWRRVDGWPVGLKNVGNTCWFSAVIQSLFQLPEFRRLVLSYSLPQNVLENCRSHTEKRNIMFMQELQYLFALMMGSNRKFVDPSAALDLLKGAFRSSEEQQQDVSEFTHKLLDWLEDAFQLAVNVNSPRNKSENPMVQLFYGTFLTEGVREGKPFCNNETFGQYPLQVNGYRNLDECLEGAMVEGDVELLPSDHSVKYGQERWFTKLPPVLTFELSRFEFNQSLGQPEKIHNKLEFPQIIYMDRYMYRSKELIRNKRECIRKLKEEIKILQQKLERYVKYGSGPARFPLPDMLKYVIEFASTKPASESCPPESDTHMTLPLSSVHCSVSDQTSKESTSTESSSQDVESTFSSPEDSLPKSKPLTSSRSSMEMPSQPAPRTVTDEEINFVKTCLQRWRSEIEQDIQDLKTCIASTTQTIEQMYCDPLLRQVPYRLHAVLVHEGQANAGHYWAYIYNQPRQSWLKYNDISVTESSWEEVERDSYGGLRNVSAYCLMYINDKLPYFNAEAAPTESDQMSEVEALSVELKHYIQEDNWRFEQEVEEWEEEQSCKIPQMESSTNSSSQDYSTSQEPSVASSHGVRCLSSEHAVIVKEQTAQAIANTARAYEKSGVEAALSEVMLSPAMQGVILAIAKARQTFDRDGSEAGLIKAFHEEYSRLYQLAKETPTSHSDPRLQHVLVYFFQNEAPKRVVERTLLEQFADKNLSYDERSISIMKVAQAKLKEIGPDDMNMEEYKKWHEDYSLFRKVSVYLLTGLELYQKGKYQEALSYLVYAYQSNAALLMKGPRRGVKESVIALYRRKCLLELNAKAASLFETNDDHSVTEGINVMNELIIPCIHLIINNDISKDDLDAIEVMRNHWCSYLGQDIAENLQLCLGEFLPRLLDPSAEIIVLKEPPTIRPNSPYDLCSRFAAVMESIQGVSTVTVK
Assay type: biochemical
Description: Example A-1(a): Biochemical Assay: Ubiquitin-Rhodamine 110 Assay for USP28 Activity
The assay was performed in a final volume of 9 μL in assay buffer containing 20 mM Tris-HCl (pH 8.0, (1M Tris-HCl, pH 8.0 solution; Corning 46-031-CM)), 3 mM BME (2-Mercaptoethanol; Sigma 63689-25ML-F), 0.03% BGG (0.22 μM filtered, Sigma, G7516-25G), and 0.01% Triton X-100 (Sigma, T9284-10L). Nanoliter quantities of 10-point, 3-fold serial dilution in DMSO was pre-dispensed into 1536 assay plates (Corning, #3724BC) for a final test concentration of 25 μM to 1.3 nM, top to lowest dose, respectively. Enzyme USP28, construct His-tagged USP28-FL-mammalian, (protein expression and purification procedure described below). Concentration and incubation times were optimized for the maximal signal-to-background while maintaining initial velocity conditions at a fixed substrate concentration. The final concentration of the enzyme in the assay was 75 μM. Final substrate (Ub-Rh110; Ubiquitin-Rhodamine 110, UbiQ-126) concentration was 25 nM with [Ub-Rh110]<<Km. 3 μL of 2× enzyme was added to assay plates (pre-stamped with compound) preincubated with […] for 30 minutes and then 3 μL of 2×Ub-Rh110 was added to assay plates. Plates were incubated for 45 minutes at room temperature before addition of 3 μL of stop solution (final concentration of 10 mM citric acid (Sigma, 251275-500G)). Fluorescence was read on the Envision (Excitation at 485 nm and Emission at 535 nm; Perkin Elmer) or on the PheraSTAR (Excitation at 485 nm and Emission at 535 nm; BMG Labtech).
Procedure for the Protein Expression and Purification for Construct His-Tagged USP28-FL-Mammalian
Expression of USP28 (1-1077)-TEV-6*His (pTT5 vector) was carried out in Expi293f cells (sequence derived from uniprot ID: Q96RU2-1). Cells were re-suspended in lysis buffer B 50 mM Bicine, pH 8.0, 20 mM NaCl, 5% glycerol, 0.1% CHAPS, 5 mM β-ME, 1 mM PMSF, 1 ug/ml Leupeptin, 1 ug/ml Pepstatin) and lysed by sonication. Insoluble material was removed by centrifugation and the supernatant was loaded onto a Ni-NTA column (GE Healthcare) equilibrated with Ni Buffer A (50 mM Bicine, pH 8.0, 20 mM NaCl, 5% glycerol, 0.1% CHAPS, 5 mM β-ME.) and washed with Ni Buffer A+20 mM imidazole until A280 reached baseline. The protein was eluted with Ni Buffer B (50 mM Bicine, pH 8.0, 20 mM NaCl, 5% glycerol, 0.1% CHAPS, 5 mM β-ME, 300 mM imidazole.). The protein was further purified using a Superdex™ 200 10/300 GL column (GE Healthcare) equilibrated with 50 mM Bicine, pH 8.0, 20 mM NaCl, 5% glycerol, 0.1% CHAPS, 5 mM β-ME. The protein was concentrated to 2.5 mg ml^−1, flash-frozen in liquid N2 and stored at −80° C.
For assay formats Example A-1(a), A-1(b), and A-2, data were reported as percent inhibition compared with control wells based on the following equation: % inh=1−((FLU−AveLow)/(AveHigh−AveLow)) where FLU=measured Fluorescence, AveLow=average Fluorescence of no enzyme control (n=16), and AveHigh=average Fluorescence of DMSO control (n=16). IC50 values were determined by curve fitting of the standard 4 parameter logistic fitting algorithm included in the Activity Base software package: IDBS XE Designer Model 205. Data is fitted using the Levenburg Marquardt algorithm.

Row | SMILES | IC50 [nM]
1 | CN[C@H]1CN(c2ccc3c(n2)CC[C@H](NC(=O)c2sc4nc(C)ccc4c2N)C3)C[C@@H]1COC (single isomer, unassigned) [Example 26-1] | 50 to 200
2 | CN[C@@H]1CN(c2ccc3c(n2)CC[C@H](NC(=O)c2sc4nc(C)ccc4c2N)C3)C[C@H]1COC (single isomer, unassigned) [Example 26-2] | 50 to 200
3 | Cc1ccc2c(N)c(C(=O)N[C@H]3CCc4nc(N5C[C@@H](CF)[C@@H](N)C5)ccc4C3)sc2n1 (single isomer, unassigned) [Example 27-1] | 50 to 200
4 | Cc1ccc2c(N)c(C(=O)N[C@H]3CCc4nc(N5C[C@H](CF)[C@H](N)C5)ccc4C3)sc2n1 (single isomer, unassigned) [Example 27-2] | 50 to 200
5 | COCCO[C@H]1CN(c2ccc3c(n2)CC[C@H](NC(=O)c2sc4nc(C)ccc4c2N)C3)C[C@@H]1N (single isomer, unassigned) [Example 28-1] | 200 to 2000
6 | COCCO[C@@H]1CN(c2ccc3c(n2)CC[C@H](NC(=O)c2sc4nc(C)ccc4c2N)C3)C[C@H]1N (single isomer, unassigned) [Example 28-2] | 200 to 2000
7 | Cc1ccc2c(N)c(C(=O)N[C@H]3CCc4nc(N5C[C@H](N)C6(C5)OCCO6)ccc4C3)sc2n1 (single isomer, unassigned) [Example 29-1] | 200 to 2000
8 | Cc1ccc2c(N)c(C(=O)N[C@H]3CCc4nc(N5C[C@@H](N)C6(C5)OCCO6)ccc4C3)sc2n1 (single isomer, unassigned) [Example 29-2] | 200 to 2000
9 | Cc1cc(C)c2c(N)c(C(=O)N[C@H]3CCc4nc(N5C[C@H](OC(C)C)[C@@H](N)C5)ncc4C3)sc2n1 (single isomer, unassigned) [Example 31-1] | 50 to 200
10 | Cc1cc(C)c2c(N)c(C(=O)N[C@@H]3CCc4nc(N5C[C@H](OC(C)C)[C@@H](N)C5)ncc4C3)sc2n1 (single isomer, unassigned) [Example 31-2] | > 2000
11 | Cc1ccc2c(N)c(C(=O)N[C@H]3CCc4cc(N5CCNCC5)ncc4C3)sc2n1 (single isomer, unassigned) [Example 32-1] | 50 to 200
12 | Cc1ccc2c(N)c(C(=O)N[C@@H]3CCc4cc(N5CCNCC5)ncc4C3)sc2n1 (single isomer, unassigned) [Example 32-2] | 200 to 2000
13 | Cc1ccc2c(N)c(C(=O)N(C)[C@@H]3COc4cc(N5CCNCC5)cc(F)c4C3)sc2n1 [Example 10-16, 3-amino-N-[(3S)-5-fluoro-7-(piperazin-1-yl)-3,4-dihydro-2H-1-benzopyran-3-yl]-N,6-dimethylthieno[2,3-b]pyridine-2-carboxamide] | > 2000
14 | Cc1ccc2c(N)c(C(=O)N[C@H]3COc4cc(N5CC6CNCC(C5)C6(F)F)ncc4C3)sc2n1 [Example 114, 3-amino-N-[(3R)-7-{9,9-difluoro-3,7-diazabicyclo[3.3.1]nonan-3-yl}-2H,3H,4H-pyrano[3,2-c]pyridin-3-yl]-6-methylthieno[2,3-b]pyridine-2-carboxamide] | 1 to 50
15 | CO[C@H]1CN(c2cc3c(cn2)C[C@@H](NC(=O)c2sc4nc(C)ccc4c2N)CO3)C[C@@H]1N [Example 179, 3-amino-N-[(3R)-7-[(3S,4S)-3-amino-4-methoxypyrrolidin-1-yl]-2H,3H,4H-pyrano[3,2-c]pyridin-3-yl]-6-methylthieno[2,3-b]pyridine-2-carboxamide] | 1 to 50
16 | CCO[C@H]1CN(c2cc3c(cn2)C[C@@H](NC(=O)c2sc4nc(C)ccc4c2N)CO3)C[C@@H]1N [Example 180, 3-amino-N-[(3R)-7-[(3S,4S)-3-amino-4-ethoxypyrrolidin-1-yl]-2H,3H,4H-pyrano[3,2-c]pyridin-3-yl]-6-methylthieno[2,3-b]pyridine-2-carboxamide] | 1 to 50
17 | CO[C@H]1CN(c2ncc3c(n2)CC[C@H](NC(=O)c2sc4nc(C)ccc4c2N)C3)C[C@@H]1N [Example 186, 3-amino-N-[(6S)-2-[(3S,4S)-3-amino-4-methoxypyrrolidin-1-yl]-5,6,7,8-tetrahydroquinazolin-6-yl]-6-methylthieno[2,3-b]pyridine-2-carboxamide] | > 2000
18 | CO[C@H]1CN(c2ncc3c(n2)CC[C@@H](NC(=O)c2sc4nc(C)ccc4c2N)C3)C[C@@H]1N [Example 187, 3-amino-N-[(6R)-2-[(3S,4S)-3-amino-4-methoxypyrrolidin-1-yl]-5,6,7,8-tetrahydroquinazolin-6-yl]-6-methylthieno[2,3-b]pyridine-2-carboxamide] | 200 to 2000
19 | Cc1ccc2c(N)c(C(=O)N[C@H]3CCc4nc(N5C[C@H](OC(C)C)[C@@H](N)C5)ncc4C3)sc2n1 [Example 271, 3-amino-N-[(6S)-2-[(3S,4S)-3-amino-4-(propan-2-yloxy)pyrrolidin-1-yl]-5,6,7,8-tetrahydroquinazolin-6-yl]-6-methylthieno[2,3-b]pyridine-2-carboxamide] | > 2000
20 | Cc1ccc2c(N)c(C(=O)N[C@@H]3CCc4nc(N5C[C@H](OC(C)C)[C@@H](N)C5)ncc4C3)sc2n1 [Example 272, 3-amino-N-[(6R)-2-[(3S,4S)-3-amino-4-(propan-2-yloxy)pyrrolidin-1-yl]-5,6,7,8-tetrahydroquinazolin-6-yl]-6-methylthieno[2,3-b]pyridine-2-carboxamide] | 200 to 2000
21 | CO[C@H]1CN(c2ncc3c(n2)CC[C@H](NC(=O)c2sc4nc(C)cc(C)c4c2N)C3)C[C@@H]1N [Example 273, 3-amino-N-[(6S)-2-[(3S,4S)-3-amino-4-methoxypyrrolidin-1-yl]-5,6,7,8-tetrahydroquinazolin-6-yl]-4,6-dimethylthieno[2,3-b]pyridine-2-carboxamide] | > 2000
22 | CO[C@H]1CN(c2ncc3c(n2)CC[C@@H](NC(=O)c2sc4nc(C)cc(C)c4c2N)C3)C[C@@H]1N [Example 274, 3-amino-N-[(6R)-2-[(3S,4S)-3-amino-4-methoxypyrrolidin-1-yl]-5,6,7,8-tetrahydroquinazolin-6-yl]-4,6-dimethylthieno[2,3-b]pyridine-2-carboxamide] | 200 to 2000
